Earlier results in US20190105277A1, “PHARMACEUTICAL COMPOSITION COMPRISING AN ATYPICAL ANTIPSYCHOTIC AGENT AND METHOD FOR THE PREPARATION THEREOF” (PHARMATHEN S.A., priority 2016, published 2019).
Where two headings read alike, the source gives them in different places.

solubility (in 0.1N HCl): slightly soluble | solubility (in dichloromethane): sparingly soluble | solubility (in water): insoluble
Structure (SMILES): Cc1nc2n(c(=O)c1CCN1CCC(c3noc4cc(F)ccc34)CC1)CCCC2O (stereo not drawn) [Paliperidone, 3-[2-[4-(6-fluoro-1,2-benzisoxazol-3-yl)-1-piperidinyl]ethyl]-6,7,8,9-tetrahydro-9-hydroxy-2-methyl-4H-pyrido[1,2-a]pyrimidin-4-one]
